Test results: US20250101044A1, “METAL-ORGANIC FRAMEWORK COMPOSITE AND PREPARATION METHOD AND USE THEREOF” (priority 2021, published 2025)
In brackets after ≈: the same amount, converted by molar mass.

Tested on: S. aureus
Assay: MIC and MBC antibacterial test
Assay type: cell-based
Conditions: Staphylococcus aureus

- MIC: 4 µg/mL (≈ 22.2 µM)
Compound: O=C(O)/C=C/c1ccc(O)c(O)c1 [CA, caffeic acid]
- MBC: 4 µg/mL (≈ 22.2 µM)
